Drawing on patent US7939520B2, “Aminoazacyclyl-3-sulfonylindazoles as 5-hydroxytryptamine-6 ligands” (Wyeth LLC, priority 2007, dated 2011), this text covers Ki for 13 compounds.

The target in one assay is T1, human cloned 5-HT6 receptors (Homo sapiens, UniProt P50406).
T1 construct: expressed in transfected cells; host or cells: HeLa cells
T1 sequence (P50406 whole entry): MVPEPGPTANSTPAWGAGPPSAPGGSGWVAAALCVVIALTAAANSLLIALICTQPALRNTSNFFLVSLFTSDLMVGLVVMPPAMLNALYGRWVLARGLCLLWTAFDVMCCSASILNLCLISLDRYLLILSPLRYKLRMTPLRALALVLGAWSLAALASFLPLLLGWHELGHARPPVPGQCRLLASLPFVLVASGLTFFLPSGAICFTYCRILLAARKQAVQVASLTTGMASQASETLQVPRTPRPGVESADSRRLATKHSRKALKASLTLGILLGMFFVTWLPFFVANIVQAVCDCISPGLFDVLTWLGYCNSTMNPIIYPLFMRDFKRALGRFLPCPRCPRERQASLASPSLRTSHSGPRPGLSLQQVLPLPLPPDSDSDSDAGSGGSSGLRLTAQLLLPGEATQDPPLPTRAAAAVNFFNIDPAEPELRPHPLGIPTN
Nature of the assay: 5-HT6 binding affinity, [3H]-LSD displacement on membranes of Hela cells.
Details: not given
Turning to `Cn1nc2ccc(N3CC[C@H](N)C3)cc2c1S(=O)(=O)c1cccc2ccccc12` [Example 18], the Ki (as a rule, the equilibrium dissociation constant of an inhibitor or competing ligand from its target) came to 54.3 nM.

In the case of `CC(C)n1nc2ccc(N3CC[C@H](N)C3)cc2c1S(=O)(=O)c1cccc2ccccc12` [Example 19], the affinity corresponds to a Ki of 48.7 nM.

In turn, `CC(C)Cn1nc2ccc(N3CC[C@H](N)C3)cc2c1S(=O)(=O)c1cccc2ccccc12` [Example 20] yielded a Ki of 75.8 nM.

The assay is the same for the next values; noted with them: [3H]-LSD 3.0 nM, Hela cell membranes, 120 min, room temperature; read-out: 5-HT6 Binding Ki.
On to `N[C@H]1CCN(c2ccc3[nH]nc(S(=O)(=O)c4ccccc4)c3c2)C1` [Example 10, (3S)-1-(3-phenylsulfonyl-1H-indazol-5-yl)pyrrolidin-3-amine], for which the inhibition constant (Ki) is 131 nM.

For the compound `CC(C)n1nc(S(=O)(=O)c2cccc3ccccc23)c2cc(N3CC[C@@H](N)C3)ccc21` [Example 16, (R)-1-(1-isopropyl-3-(naphthalen-1-ylsulfonyl)-1H-indazol-5-yl)pyrrolidin-3-amine], the Ki worked out at 13.7 nM.

On to `CN(C)[C@H]1CCN(c2ccc3[nH]nc(S(=O)(=O)c4cccc5ccccc45)c3c2)C1` [Example 13, (S)—N,N-dimethyl-1-(3-(naphthalen-1-ylsulfonyl)-1H-indazol-5-yl)pyrrolidin-3-amine], for which the inhibitory constant (Ki) is 50 nM.

For the compound `NC1CN(c2ccc3[nH]nc(S(=O)(=O)c4ccccc4)c3c2)C1` [Example 14, 1-(3-(phenylsulfonyl)-1H-indazol-5-yl)azetidin-3-amine], the Ki was determined as 1.1 nM.

For `N[C@@H]1CCN(c2ccc3[nH]nc(S(=O)(=O)c4ccccc4)c3c2)C1` [Example 11, (3R)-1-(3-phenylsulfonyl-1H-indazol-5-yl)pyrrolidin-3-amine], the Ki came out at 146 nM.

Consider `CN(C)[C@@H]1CCN(c2ccc3[nH]nc(S(=O)(=O)c4cccc5ccccc45)c3c2)C1` [Example 12, (R)—N,N-dimethyl-1-(3-(naphthalen-1-ylsulfonyl)-1H-indazol-5-yl)pyrrolidin-3-amine], for which the Ki was found to be 1.1 nM.

Regarding `NC1CN(c2ccc3[nH]nc(S(=O)(=O)c4cccc5ccccc45)c3c2)C1` [Example 8, 1-[3-(1-naphthylsulfonyl)-1H-indazol-5-yl]azetidin-3-amine], the Ki is 3.5 nM.

Still in this assay, the particulars now being: read-out: 5-HT6 Binding Ki.
For the compound `CC(C)Cn1nc(S(=O)(=O)c2cccc3ccccc23)c2cc(N3CC[C@@H](N)C3)ccc21` [Example 17, (R)-1-(1-isobutyl-3-(naphthalen-1-ylsulfonyl)-1H-indazol-5-yl)pyrrolidin-3-amine], the Ki stood at 36.9 nM.

In the case of `Cn1nc(S(=O)(=O)c2cccc3ccccc23)c2cc(N3CC[C@@H](N)C3)ccc21` [Example 15, (3R)-1-[1-methyl-3-(naphthalen-1-ylsulfonyl)-1H-indazol-5-yl]pyrrolidin-3-amine], the Ki is 21.1 nM.

`NC1CCN(c2ccc3[nH]nc(S(=O)(=O)c4cccc(Cl)c4)c3c2)CC1` [Example 5, 1-{3-[(3-chlorophenyl)sulfonyl]-1H-indazol-5-yl}piperidin-4-amine]: the Ki was 8 nM.
